Source: patent publication US5298517A, “Angiotensin II receptor blocking agents” (American Cyanamid Company, priority 1993, dated 1994)

Molecular target: T1, Angiotensin II Receptor (Bos taurus, UniProt P25104)
T1 construct: The brownish tissue forming the adrenal cortex is scraped off and finely minced with scissors before homogenization; tissue local slaughter house (Maxwell-Cphen); host or cells: beef adrenal cortex, microsomal membranes
T1 sequence (P25104 1-359): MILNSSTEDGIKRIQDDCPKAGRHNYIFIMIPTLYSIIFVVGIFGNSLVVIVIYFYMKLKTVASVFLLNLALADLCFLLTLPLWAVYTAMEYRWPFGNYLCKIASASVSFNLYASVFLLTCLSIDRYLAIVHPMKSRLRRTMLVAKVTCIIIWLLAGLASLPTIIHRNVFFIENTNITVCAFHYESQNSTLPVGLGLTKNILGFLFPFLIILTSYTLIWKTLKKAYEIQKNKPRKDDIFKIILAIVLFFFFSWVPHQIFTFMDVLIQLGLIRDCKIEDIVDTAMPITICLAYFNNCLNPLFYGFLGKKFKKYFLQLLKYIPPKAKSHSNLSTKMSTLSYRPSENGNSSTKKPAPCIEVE
Assay: Angiotensin II receptor binding, displacement of [^125 I](Sar^1,Ile^8)AngII from beef adrenal cortex membranes
Settings: pH 7.4, 60 min, room temperature, triplicate
Excerpt: Beef adrenals are obtained from a local slaughter house (Maxwell-Cphen). [^125 I](Sar^1,Ile^8)AngII, S.A. 2200 Ci/mmole, is purchased from Dupont (NEN®, Boston, Mass.). All unlabeled AngII analogs, Dimethylsulfoxide (DMSO), nucleotides, bovine serum albumin (BSA) are purchased from Sigma Chemical Co., St. Louis, Mo. U.S.A.
Approximately sixteen (16) to twenty (20) beef adrenal glands are processed as follows: fresh adrenal glands received on crushed ice are cleaned of fatty tissues and the tough membranes encapsulating the glands are removed and discarded. The brownish tissue forming the adrenal cortex is scraped off and finely minced with scissors before homogenization. Care is taken to avoid contamination with medullary tissue during dissection. The scraped cortices are suspended in twenty volumes of an ice-cold buffer medium consisting of 10 mM Tris.HCl (pH 7.4 at 22° C.) and containing 1.0 mM EDTA and 0.2 M sucrose. Unless otherwise indicated, all subsequent operations are done at 4° C. […] This P2 pellet is discarded and the liquid phase is carefully decanted off in clean centrifuge tubes and recentrifuged at high speed ([…]) […] the protein content of the preparation is determined by the Lowry's method (Lowry, O. H., Rosebrough, N. F., Farr, A. L. and Randall, R. J., Protein measurement with Folin phenol reagent. J. Biol. Chem., […], 265-275, 1951). […]

IC50: 34 nM
Compound: CCCCc1nc(Cl)c([C@@]2(C)C[C@@H]3CCCN3O2)n1Cc1ccc(-c2ccccc2-c2nn[nH]n2)cc1 (racemic) [Example 8, Cis-(+/-)-2-[2-Butyl-4-chloro-1-[[2'-(1H-tetrazol-5-yl)[1,1'-biphenyl]-4-yl]methyl]-1H-imidazol-5-yl]hexahydro-2-methyl-pyrrolo[1,2-b]isoxazole]
